The values below come from patent publication US20070270434A1, “SULFONYL-SUBSTITUTED BICYCLIC COMPOUNDS AS MODULATORS OF PPAR” (KALYPSYS, INC., priority 2006, published 2007).

Common to all, as to format: cell-based, murine and human
What all share (conditions): 20-24 hours

In assay [1] the target is T1, PPAR-delta ligand binding domain fused to GAL4 DNA binding domain (UniProt Q03181).
T1 sequence (Q03181 1-441): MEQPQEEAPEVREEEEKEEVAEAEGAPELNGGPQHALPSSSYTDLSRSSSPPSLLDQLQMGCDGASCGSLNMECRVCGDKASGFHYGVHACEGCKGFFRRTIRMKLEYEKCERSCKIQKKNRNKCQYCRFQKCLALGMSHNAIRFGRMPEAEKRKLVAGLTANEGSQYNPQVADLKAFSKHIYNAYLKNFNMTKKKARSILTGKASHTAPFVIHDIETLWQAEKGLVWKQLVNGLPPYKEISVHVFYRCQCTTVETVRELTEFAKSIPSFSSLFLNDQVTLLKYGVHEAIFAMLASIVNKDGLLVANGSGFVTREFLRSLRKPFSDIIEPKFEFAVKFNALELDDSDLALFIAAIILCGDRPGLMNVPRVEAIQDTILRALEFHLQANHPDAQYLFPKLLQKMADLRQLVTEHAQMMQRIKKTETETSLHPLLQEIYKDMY
In words: Transient transfection transactivation assay in CV-1 cells, PPAR-delta (GAL4 chimera, luciferase reporter). From the text:
(§1) Compounds may be screened for functional potency in transient transfection assays in CV-1 cells for their ability to activate the PPAR subtypes (transactivation assay). A previously established chimeric receptor system was utilized to allow comparison of the relative transcriptional activity of the receptor subtypes on the same synthetic response element and to prevent endogenous receptor activation from complicating the interpretation of results. See, for example, Lehmann, J. M.; Moore, L. B.; Smith-Oliver, T. A; Wilkinson, W. O.; Willson, T. M.; Kliewer, S. A., An antidiabetic thiazolidinedione is a high affinity ligand for peroxisome proliferator-activated receptor […], J. Biol. Chem., 1995, 270, 12953-6. The ligand binding domains for murine and human PPAR-alpha, PPAR-gamma, and PPAR-delta are each fused to the yeast transcription factor GAL4 DNA binding domain. CV-1 cells were transiently transfected with expression vectors for the respective PPAR chimera along with a reporter construct containing four or five copies of the GAL4 DNA binding site driving expression of luciferase. After 8-16 h, the cells are replated into multi-well assay plates and the media is exchanged to phenol-red free DME medium supplemented with 5% delipidated calf serum. 4 hours after replating, cells were treated with either compounds or 1% DMSO for 20-24 hours. Luciferase activity was then assayed with Britelite (Perkin Elmer) following the manufacturer's protocol and measured with either the Perkin Elmer Viewlux or Molecular Devices Acquest (see, for example, Kliewer, S. A., et. al. Cell 1995, 83, 813-819). Rosiglitazone is used as a positive control in the PPARγ assay. Wy-14643 and GW7647 are used as positive controls in the PPARα assay. GW501516 is used as the positive control in the PPARδ assay.
For orientation: In a reporter assay the amount or activity of a reporter protein is the signal.

Assay [2] concerns the target T2, PPAR-gamma ligand binding domain fused to GAL4 DNA binding domain (UniProt P37231).
T2 sequence (P37231 1-505): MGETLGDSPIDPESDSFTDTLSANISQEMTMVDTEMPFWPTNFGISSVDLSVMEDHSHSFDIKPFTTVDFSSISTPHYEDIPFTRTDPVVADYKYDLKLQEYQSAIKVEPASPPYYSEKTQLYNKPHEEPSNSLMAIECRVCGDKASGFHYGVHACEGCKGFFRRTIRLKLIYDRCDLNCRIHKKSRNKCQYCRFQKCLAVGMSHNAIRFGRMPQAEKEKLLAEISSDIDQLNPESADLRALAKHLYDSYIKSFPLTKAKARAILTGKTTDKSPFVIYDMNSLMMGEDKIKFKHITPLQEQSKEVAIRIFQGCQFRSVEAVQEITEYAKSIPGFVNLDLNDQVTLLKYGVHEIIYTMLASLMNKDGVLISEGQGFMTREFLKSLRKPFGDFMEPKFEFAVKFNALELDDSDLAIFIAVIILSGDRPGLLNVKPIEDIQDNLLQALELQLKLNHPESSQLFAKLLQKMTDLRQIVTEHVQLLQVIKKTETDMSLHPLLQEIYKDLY
In words: Transient transfection transactivation assay in CV-1 cells, PPAR-gamma (GAL4 chimera, luciferase reporter).
Excerpt: as §1

Assay [3] addresses T3, PPAR-alpha ligand binding domain fused to GAL4 DNA binding domain (UniProt Q07869).
T3 sequence (Q07869 1-468): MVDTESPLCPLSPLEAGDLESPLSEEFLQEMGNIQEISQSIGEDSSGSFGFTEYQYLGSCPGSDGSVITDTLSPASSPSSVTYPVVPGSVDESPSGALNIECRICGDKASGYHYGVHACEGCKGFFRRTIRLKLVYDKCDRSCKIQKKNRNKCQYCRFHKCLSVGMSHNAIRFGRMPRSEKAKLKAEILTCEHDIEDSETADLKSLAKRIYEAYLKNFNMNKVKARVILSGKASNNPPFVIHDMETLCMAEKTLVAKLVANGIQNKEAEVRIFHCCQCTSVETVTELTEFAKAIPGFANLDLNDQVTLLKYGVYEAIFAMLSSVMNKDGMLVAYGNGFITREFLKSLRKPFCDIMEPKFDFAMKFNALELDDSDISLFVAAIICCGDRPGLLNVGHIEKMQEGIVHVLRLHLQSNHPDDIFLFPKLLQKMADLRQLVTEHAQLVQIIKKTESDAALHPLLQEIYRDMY
The assay can be described thus: Transient transfection transactivation assay in CV-1 cells, PPAR-alpha (GAL4 chimera, luciferase reporter).
Excerpt: as §1

A word on the EC50: it is the midpoint of the concentration-response curve. Regarding `C[C@@H]1CN(CCc2ccc(OC(F)(F)F)cc2)C[C@H](C)N1S(=O)(=O)c1cccc2c1CC(C(=O)O)C2` (mixture of isomers) [Example 12A, 4-(cis-2,6-Dimethyl-4-(4-(trifluoromethoxy)phenethyl)piperazin-1-ylsulfonyl)-2,3-dihydro-1H-indene-2-carboxylic acid], the results for the EC50 in assay [1], in assay [2] and in assay [3] were less than 5 µM, greater than 100 µM and greater than 100 µM, respectively.

On to `C[C@@H]1CN(CCc2ccc(C(F)(F)F)cc2)C[C@H](C)N1S(=O)(=O)c1cccc2c1CC(C(=O)O)C2` (mixture of isomers) [Example 14A, 4-(cis-2,6-Dimethyl-4-(4-(trifluoromethyl)phenethyl)piperazin-1-ylsulfonyl)-2,3-dihydro-1H-indene-2-carboxylic acid], for which the results for the EC50 in assay [1], in assay [2] and in assay [3] were less than 5 µM, greater than 100 µM and greater than 100 µM, respectively.

In the case of `C[C@@H]1CN(Cc2ccc(C(F)(F)F)c(F)c2)C[C@H](C)N1S(=O)(=O)c1cccc2c1CC(C(=O)O)C2` (stereo partly drawn) [Example 1, 4-(4-(3-Fluoro-4-(trifluoromethyl)benzyl)-cis-2,6-dimethylpiperazin-1-ylsulfonyl)-2,3-dihydro-1H-indene-2-carboxylic acid], the EC50 is less than 5 µM in assay [1], greater than 100 µM in assay [2] and greater than 100 µM in assay [3].

Take `O=C(O)C1Cc2cccc(S(=O)(=O)N3CCN(Cc4cccc(OC(F)(F)F)c4)CC3)c2C1` (stereo not drawn) [Example 2]: the EC50 in assay [1] was less than 5 µM; in assay [2], less than 5 µM; in assay [3], greater than 100 µM.

In the case of `C[C@@H]1CN(Cc2cccc(OC(F)(F)F)c2)C[C@H](C)N1S(=O)(=O)c1cccc2c1CC(C(=O)O)C2` (stereo partly drawn) [Example 3, 4-[cis-2,6-Dimethyl-4-(3-(trifluoromethoxy)benzyl)piperazine-1-sulfonyl]-2,3-dihydro-1H-indene-2 carboxylic acid], the EC50 in assay [1] is less than 5 µM; in assay [2], 5 to 100 µM; in assay [3] it was greater than 100 µM.

In the case of `C[C@@H]1CN(Cc2ccc(OC(F)(F)F)c(Cl)c2)C[C@H](C)N1S(=O)(=O)c1cccc2c1CC(C(=O)O)C2` (stereo partly drawn) [Example 4, 4-(4-(3-Chloro-4-(trifluoromethoxy)benzyl)-cis-2,6-dimethylpiperazin-1-ylsulfonyl)2,3-dihydro-1H-indene-2-carboxylic acid], the EC50 in assay [1] is less than 5 µM; in assay [2], 5 to 100 µM; in assay [3], 5 to 100 µM.

With `C[C@@H]1CN(Cc2ccc(OC(F)(F)F)c(F)c2)C[C@H](C)N1S(=O)(=O)c1cccc2c1CC(C(=O)O)C2` (stereo partly drawn) [Example 5], the figures for the half-maximal effective concentration (EC50) in assay [1], in assay [2] and in assay [3] were less than 5 µM, 5 to 100 µM and 5 to 100 µM, respectively.

As to `C[C@@H]1CN(Cc2ccc(SC(F)(F)F)cc2)C[C@H](C)N1S(=O)(=O)c1cccc2c1CC(C(=O)O)C2` (stereo partly drawn) [Example 6, 4-(cis-2,6-Dimethyl-4-(4-(trifluoromethylthio)benzyl)piperazin-1-ylsulfonyl)-2,3-dihydro-1H-indene-2-carboxylic acid], the EC50 was less than 5 µM in assay [1], 5 to 100 µM in assay [2] and 5 to 100 µM in assay [3].

As to `C[C@@H]1CN(C(=O)Cc2ccc(OC(F)(F)F)cc2)C[C@H](C)N1S(=O)(=O)c1cccc2c1CC(C(=O)O)C2` (stereo partly drawn) [Example 7, 4-(cis-2,6-Dimethyl-4-(2-(4-(trifluoromethoxy)phenyl)acetyl)piperazin-1-ylsulfonyl)-2,3-dihydro-1H-indene-2-carboxylic acid], the EC50 in assay [1] was less than 5 µM; in assay [2], greater than 100 µM; in assay [3], greater than 100 µM.

With `C[C@@H]1CN(C(=O)CCc2ccc(OC(F)(F)F)cc2)C[C@H](C)N1S(=O)(=O)c1cccc2c1CC(C(=O)O)C2` (stereo partly drawn) [Example 8, 4-(cis-2,6-Dimethyl-4-(3-(4-(trifluoromethoxy)phenyl)propanoyl)piperazin-1-ylsulfonyl)-2,3-dihydro-1H-indene-2-carboxylic acid], the EC50 is less than 5 µM in assay [1], greater than 100 µM in assay [2] and greater than 100 µM in assay [3].

Regarding `C[C@@H]1CN(C(=O)c2ccc(OC(F)(F)F)cc2)C[C@H](C)N1S(=O)(=O)c1cccc2c1CC(C(=O)O)C2` (stereo partly drawn) [Example 9, 4-(cis-2,6-Dimethyl-4-(4-(trifluoromethoxy)benzoyl)piperazin-1-ylsulfonyl)-2,3-dihydro-1H-indene-2-carboxylic acid], the EC50 was 5 to 100 µM in assay [1], greater than 100 µM in assay [2] and greater than 100 µM in assay [3].

Turning to `O=C(O)C1Cc2cccc(S(=O)(=O)N3CCN(S(=O)(=O)c4ccc(OC(F)(F)F)cc4)CC3)c2C1` (stereo not drawn) [Example 10, 4-(4-(4-(Trifluoromethoxy)phenylsulfonyl)piperazin-1-ylsulfonyl)-2,3-dihydro-1H-indene-2-carboxylic acid], the EC50 is 5 to 100 µM in assay [1], 5 to 100 µM in assay [2] and greater than 100 µM in assay [3].

Take `C[C@@H]1CN(S(=O)(=O)c2ccc(OC(F)(F)F)cc2)C[C@H](C)N1S(=O)(=O)c1cccc2c1CC(C(=O)O)C2` (stereo partly drawn) [Example 11, 4-(cis-2,6-Dimethyl-4-(4-(trifluoromethoxy)phenylsulfonyl)piperazin-1-ylsulfonyl)-2,3-dihydro-1H-indene-2-carboxylic acid]: the EC50 is less than 5 µM in assay [1], 5 to 100 µM in assay [2] and greater than 100 µM in assay [3].

As for `C[C@@H]1CN(C(=O)Cc2ccc(C(F)(F)F)cc2)C[C@H](C)N1S(=O)(=O)c1cccc2c1CC(C(=O)O)C2` (stereo partly drawn) [Example 13, 4-(cis-2,6-Dimethyl-4-(2-(4-(trifluoromethyl)phenyl)acetyl)piperazin-1-ylsulfonyl)-2,3-dihydro-1H-indene-2-carboxylic acid], the EC50 is 5 to 100 µM in assay [1], greater than 100 µM in assay [2] and greater than 100 µM in assay [3].

As for `O=C(O)C1Cc2cccc(S(=O)(=O)N3CCN(CCc4ccc(OC(F)(F)F)cc4)CC3)c2C1` (stereo not drawn) [Example 15, 4-(4-(4-(Trifluoromethoxy)phenethyl)piperazin-1-ylsulfonyl)-2,3-dihydro-1H-indene-2-carboxylic acid], the EC50 in assay [1] is less than 5 µM; in assay [2], 5 to 100 µM; in assay [3], 5 to 100 µM.

For `O=C(O)C1Cc2cccc(S(=O)(=O)N3CCN(C(=O)CCc4ccc(OC(F)(F)F)cc4)CC3)c2C1` (stereo not drawn) [Example 16, 4-(4-(3-(4-(Trifluoromethoxy)phenyl)propanoyl)piperazin-1-ylsulfonyl)-2,3-dihydro-1H-indene-2-carboxylic acid], the EC50 in assay [1] is 5 to 100 µM; in assay [2], greater than 100 µM; in assay [3] it was greater than 100 µM.
